Data on six compounds can be found in ChEMBL document CHEMBL2331217, “Evolvosides C–E, flavonol-4'-O-triglycosides from evolvulus alsinoides and their anti-stress activity [corrected]” (2013).

Format in all cases: functional
Assay [1] relates to Rattus norvegicus. The assay can be described thus: Anti-stress activity in Sprague-Dawley rat assessed as change in acute stress-induced plasma corticosterone level at 40 mg/kg, po qd for 3 days prior to acute stress induction measured after 150 mins by HPLC/UV analysis (reference value: 511.2 +/- 23.2 ng/ml).
Assay [2] has as its system Rattus norvegicus. The assay can be described thus: Anti-stress activity in Sprague-Dawley rat assessed as change in acute stress-induced plasma creatine kinase level at 40 mg/kg, po qd for 3 days prior to acute stress induction measured after 150 mins (reference value: 1018 +/- 31.43 mg/dl).
For assay [3], the system named is Rattus norvegicus. Put plainly: Anti-stress activity in Sprague-Dawley rat assessed as change in acute stress-induced plasma glucose level at 40 mg/kg, po qd for 3 days prior to acute stress induction measured after 150 mins (reference value: 154.7 +/- 4.38 mg/dl).
The test system of assay [4] is Rattus norvegicus. Put plainly: Anti-stress activity in Sprague-Dawley rat assessed as change in acute stress-induced adrenal gland weight at 40 mg/kg, po qd for 3 days prior to acute stress induction measured after 150 mins (reference value: 10.2 +/- 0.84 mg/kg).

Regarding `O=c1c(O)c(-c2ccc(O[C@@H]3O[C@H](CO)[C@@H](O)[C@H](O)[C@H]3O[C@@H]3O[C@H](CO)[C@@H](O)[C@H](O)[C@H]3O)cc2)oc2cc(O)cc(O)c12`, the Activity was found to be 458.2 ng/mL in assay [1], 1078 mg/dL in assay [2], 113.1 mg/dL in assay [3] and 10.91 mg/kg in assay [4].

Consider `C[C@@H]1O[C@@H](OC[C@H]2O[C@@H](Oc3ccc(-c4oc5cc(O)cc(O)c5c(=O)c4O)cc3)[C@H](O)[C@@H](O)[C@@H]2O)[C@H](O[C@@H]2O[C@H](CO)[C@@H](O)[C@H](O)[C@H]2O)[C@H](O)[C@H]1O` [EVOLVOSIDE C], for which the Activity stood at 233.3 ng/mL in assay [1], 385.3 mg/dL in assay [2], 80.17 mg/dL in assay [3] and 7.11 mg/kg in assay [4].

For the compound `COc1cc(O)c2c(=O)c(O)c(-c3ccc(O[C@@H]4O[C@H](CO[C@@H]5O[C@@H](C)[C@H](O)[C@@H](O)[C@H]5O[C@@H]5O[C@H](CO)[C@@H](O)[C@H](O)[C@H]5O)[C@@H](O)[C@H](O)[C@H]4O)cc3)oc2c1` [EVOLVOSIDE D], the Activity was 241.7 ng/mL in assay [1], 405.4 mg/dL in assay [2], 95.13 mg/dL in assay [3] and 8.23 mg/kg in assay [4].

`O=c1cc(-c2ccc(O)cc2)oc2c([C@@H]3O[C@H](CO)[C@@H](O)[C@H](O)[C@H]3O)c(O)cc(O)c12`: the Activity in assay [1] amounted to 439 ng/mL; in assay [2], 822 mg/dL; in assay [3] it was 92.1 mg/dL; in assay [4], 9.78 mg/kg.

With `COc1cc(OC)c2c(=O)c(O)c(-c3ccc(O[C@@H]4O[C@H](CO[C@@H]5O[C@@H](C)[C@H](O)[C@@H](O)[C@H]5O[C@@H]5O[C@H](CO)[C@@H](O)[C@H](O)[C@H]5O)[C@@H](O)[C@H](O)[C@H]4O)cc3)oc2c1` [EVOLVOSIDE E], the results for the Activity in assay [1] and in assay [2] were 252.6 ng/mL and 413.7 mg/dL, respectively.

With `C[C@@H]1O[C@@H](OC[C@H]2O[C@@H](Oc3ccc(-c4oc5cc(O)cc(O)c5c(=O)c4O)cc3)[C@H](O)[C@@H](O)[C@@H]2O)[C@H](O)[C@H](O)[C@H]1O`, the Activity in assay [1] came to 239.2 ng/mL; in assay [2] it was 521.4 mg/dL; in assay [3], 105.13 mg/dL; in assay [4], 8.47 mg/kg.
